Experimental data as given in patent publication US20190307740A1, “COMPOSITIONS AND METHODS FOR TREATMENT RELATED TO FALL AND FALL FREQUENCY IN NEURODEGENERATIVE DISEASES” (Neurocea, LLC, priority 2016, published 2019).
Values joined by “and” are separate entries in the source; they are usually repeats but may differ in a detail not shown here. Equal values may be shown once.

How the values were obtained:
[1] = test system: subjects with idiopathic PD with LIDs
Text: (§1) This post hoc analysis was inclusive of patients having baseline scores of […] for each of UPDRS Part II Question 13, Part II Question 14, and Part III Item 30.
(§2) The original UPDRS scale was used. […] In the UPDRS Part II, Question 13 is on Falling unrelated to Freezing. […] In Part II, Question 14 is on Freezing when Walking. This is a 5-point item and has two variables freezing and falls. […] Questions 13 and 14 were compared separately (Table 11).
For falls (UPDRS Part II, Question 13), a 5-point scale was used: 0: No falls to 4: falls more than once per day. For FOG and falls related to FOG (Question 14), a 5-point scale was used: 0: No FOG to 3 or 4: frequent falls from FOG. […] Analysis utilized Fisher's exact 2-tailed test. Improvement or worsening over baseline was calculated from the last treatment visit (Table 11).
(§3) This post hoc analysis was inclusive of patients having screening and/or baseline scores of greater than 0 for each of UPDRS Part II Question 13, Part II Question 14, and Part III Item 30.
Question 13—Falling Unrelated to Freezing • 0=None; • 1=Rare falling; • 2=Occasionally falls, less than once per day; • 3=Falls an average of once daily; • 4=Falls more than once daily.
For the purposes of this alternative post hoc analysis, only patients having a screening or baseline score of 2 or more, i.e., occasional freezing when walking or occasional falls, less than once per day, were considered to have experienced episodes of freezing and/or falling. Additionally, scores of patients with a screening or baseline score of 1 were set to 0, i.e., no freezing when walking or no falls. All patients were included in the analysis regardless of their status during the study, with the last observation carried forward.

[2] = test system: subjects with idiopathic PD with LIDs; remark: listed apart in the source
Method: (§4) At the time the study was performed (2009), there was no FDA accepted instrument for measuring treatment efficacy for LIDs. Therefore, several secondary objectives were utilized to assess efficacy including the Unified Dyskinesia Rating Scale (UDysRS).

[3] = test system: subjects with idiopathic PD with LIDs; remark: listed apart in the source
Text: as §2
(§5) The efficacy variables for LIDs were the mean change from baseline to week 10 in the UDysRS total score; UDysRS sub-scores (Table 12). An analysis of covariance (ANCOVA) combined features of regression and analysis of variance (ANOVA). In addition to the descriptive summary of each variable from baseline to endpoint, Least Square (LS) means standard errors and 95% Confidence intervals (CI) of each group, and the difference of LS means between the 2 treatment groups and its 95% CI are presented. A similar analysis was applied to comparisons between UPDRS Part II, UPDRS Part III.

[4] = test system: subjects with idiopathic PD with LIDs; remark: listed apart in the source
Method: as §4
Efficacy was measured with the Unified Dyskinesia Rating Scale (UDysRS), a semi-quantitative assessment, FDA-validated instrument to assess […] dyskinesia in PD. […] Dosing was begun at 1 mg every 6 hours to a final dose of 24 mg per day. Patients who tolerated a total daily dose of at least 16 mg per day continued in the study.
LIDs were assessed by the UDysRS, the main measure of LIDs (Table 12). […] The study was conducted in accordance with the Declaration of Helsinki and Good Clinical Practice Guidelines. All sites received approval from an institutional review board and written informed consent was obtained from each patient prior to participation.
as §5

[5] = test system: subjects with idiopathic PD with LIDs; remark: listed apart in the source
Text: as §1, §2, §3

[6] = baseline to week 10, of 30 patients
[7] = baseline to week 10, of 30 patients, negative = improvement

CN1CCCC1c1cccnc1.O=C(O)C(O)C(O)C(=O)O (stereo not drawn) [NP002, Nicotine Bitartrate]
falling vs placebo at week 10 ([1]; Question 13 score of 2 or greater at screening or baseline, Wilcoxon-Mann-Whitney p=0.3250): directional signal towards reduced falling
patients with either a reduction or absence of falls ([1]; active phase of the study): ~87%
Falls (Question 13): patients with No Change [1, 6]: 15
Falls (Question 13): patients with change +1 [1, 6]: 1
Falls (Question 13): patients with change +2 [1, 6]: 0
Falls (Question 13): patients with change +3 [1, 6]: 0
Falls (Question 13): patients with change −1 [1, 6]: 7
Falls (Question 13): patients with change −2 [1, 6]: 5
Falls (Question 13): patients with change −3 [1, 7]: 2
patients with no falls during the study ([1]; number of 30 patients): 12
patients with a reduction in falls ([1]; of 30 patients, p=0.004 vs placebo): 47%
improvement in falling vs placebo at week 10 ([1]; score >0 at screening/baseline, Fisher's exact test p=0.057): statistically significant improvement in falling
patients who reported fewer falls (UPDRS Part II, Question 13) ([1]; screening and/or baseline score >0, follow-up to visit 3 or 4): 14 of 15
PGI-C responders (score of 1, 2, or 3) ([2]; Visit 4 (Week 10), p=0.0048 vs placebo): 21 (77.8%)
LF-ADL responders (>25% reduction from baseline), vs placebo ([2]; Visit 4 (Week 10), p=0.0453): statistically significant difference between treatment groups
patient- and physician-rated assessments of efficacy vs placebo ([2]; in vivo): superior to placebo on ALL patient- and physician-rated assessments of efficacy
Difference in LS Means, UPDRS Part III ([3]; NP002 versus placebo, p 0.337): −18.3 ± 1.8
Difference in LS Means, UPDRS Part II ([3]; NP002 versus placebo, p 0.631): 10.1 ± 0.96
UPDRS II Change ([3]; baseline to 10 weeks): 2.8 ± 5.2
UPDRS III Change ([3]; baseline to 10 weeks): 2.0 ± 7.5
UPDRS II at Baseline ([3]; before treatment, n=35): 13.1 ± 6.0
UPDRS III at Baseline ([3]; before treatment, n=35): 20.0 ± 8.8
UPDRS II at 10 Weeks ([3]; n=30): 10.1 ± 5.3
UPDRS III at 10 Weeks ([3]; n=30): 17.3 ± 10.6
UPDRS Part II and Part III after treatment vs placebo ([3]; p>0.34): no significant differences
UDysRS Evaluation of Dyskinesias on Ambulation, Difference LS Means ([4]; NP002 vs placebo, p 0.011): −3.7 +/− 1.9
UDysRS Evaluation of Dyskinesias on 7 Body Parts, Difference LS Means ([4]; NP002 vs placebo, p 0.062): −2.8 +/− 2.6
Total Score UDysRS, Difference LS Means ([4]; NP002 vs placebo, p 0.092): −6.7 +/− 4.1
UDysRS Evaluation of Dyskinesias on Dressing, Difference LS Means ([4]; NP002 vs placebo, p 0.139): −2.1 +/− 1.4
UDysRS Evaluation of Dyskinesias on Drinking, Difference LS Means ([4]; NP002 vs placebo, p 0.171): −2.4 +/− 1.7
UDysRS Evaluation of Dyskinesias on Communication, Difference LS Means ([4]; NP002 vs placebo, p 0.189): −1.9 +/− 1.4
UDysRS total score (primary outcome of dyskinesia) vs placebo ([4]; Week 10): statistical trend towards improvement
reduction (improvement) in UDysRS ambulation subtest ([4]; baseline to week 10, p=0.011 vs placebo): 46% and 46.3%
reduction in LIDs on the Total UDysRS ([4]; baseline to week 10, p=0.09 vs placebo): 29%
Total Score UDysRS, Baseline ([4]; before treatment, n=35): 51.7 +/− 16.9
UDysRS Evaluation of Dyskinesias on 7 Body Parts, Baseline ([4]; before treatment, n=35): 13.5 +/− 5.4
UDysRS Evaluation of Dyskinesias on Ambulation, Baseline ([4]; before treatment, n=35): 9.5 +/− 6.0
UDysRS Evaluation of Dyskinesias on Communication, Baseline ([4]; before treatment, n=35): 10.5 +/− 4.8
UDysRS Evaluation of Dyskinesias on Dressing, Baseline ([4]; before treatment, n=35): 11.3 +/− 6.2
UDysRS Evaluation of Dyskinesias on Drinking, Baseline ([4]; before treatment, n=35): 9.1 +/− 5.6
physician reported outcomes per UDysRS Part III vs placebo ([4]; dyskinesia impact on ambulation, p=0.011): significant improvement
Total Score UDysRS, Week 10 ([4]; n=27): 36.4 +/− 16.1
UDysRS Evaluation of Dyskinesias on Ambulation, Week 10 ([4]; n=27): 5.1 +/− 5.3
UDysRS Evaluation of Dyskinesias on Communication, Week 10 ([4]; n=27): 7.0 +/− 5.0
UDysRS Evaluation of Dyskinesias on Dressing, Week 10 ([4]; n=27): 6.9 +/−5.5
UDysRS Evaluation of Dyskinesias on Drinking, Week 10 ([4]; n=27): 5.3 +/− 5.0
Pull Test (Item 30): patients with No Change [5, 6]: 19
Pull Test (Item 30): patients with change +1 [5, 6]: 1
Pull Test (Item 30): patients with change +2 [5, 6]: 0
Pull Test (Item 30): patients with change +3 [5, 6]: 0
Pull Test (Item 30): patients with change −1 [5, 6]: 5
Pull Test (Item 30): patients with change −2 [5, 6]: 5
Pull Test (Item 30): patients with change −3 [5, 7]: 0
patients with improvement in postural stability (pull test) ([5]; patients with screening and/or baseline score >0, p=0.054 vs placebo): 9 of 24
